Key:
[1] = Protein binding in fresh human serum (size-exclusion MicroSpin G-50); assay type: in vitro ADME; conditions: for Protein binding (%) (mean, n = 2): 37 °C; for protein binding: after 24-h incubation period
Protocol: Protein binding studies were performed by incubating radiolabelled siderophore (1–2 μg/150 μl) in fresh human serum (850 μl) and in PBS (850 μl) (control) at 37 °C for various time points (30, 60 and 120 min for [^68Ga]siderophores and 1, 4 and 24 h for [^89Zr]siderophores). After incubation, 25 μl of the sample was separated by size-exclusion chromatography (MicroSpin™ G-50 Columns; Sephadex G-50 (GE Healthcare, Buckinghamshire, UK)) by centrifugation at 2000×g for 2 min. Protein binding of radiolabelled siderophores was determined by measuring the activity distributed between the column (non protein-bound) and the eluate (protein-bound) using the automatic gamma counter.

[2] = In vitro stability in fresh human serum (RP-HPLC); assay type: in vitro ADME; conditions: for Stability in human serum (%) (n = 1): 37 °C; for in vitro stability (in words): human serum and 6 mM DTPA, all examined media
Protocol: […] After incubation, human serum samples were precipitated with acetonitrile or ethanol, centrifuged (2200×g, 3 min) and the supernatant analyzed. Degradation of the radiolabelled siderophore complexes was evaluated by RP-HPLC. Samples of the DTPA solutions were directly injected onto the HPLC.

[3] = Partition coefficient determination (octanol/PBS pH 7.4); assay type: physicochemical
Protocol: Radiolabelled siderophore in 0.5 ml phosphate-buffered saline (PBS) pH = 7.4 was added to 0.5 ml octanol and the mixture was vigorously vortexed for 15 min. The aqueous and organic solvents were separated by centrifugation and 50 μl aliquots of both layers were collected and measured in the automatic gamma counter (WIZARD^2; PerkinElmer, Waltham, USA). Log P values were calculated from obtained data (mean of n = 6).

[4] = In vitro stability in 6 mM DTPA solution pH 7 (RP-HPLC); assay type: physicochemical; conditions: 6 mM DTPA pH 7, 37 °C
Protocol: The in vitro stability of radiolabelled siderophores (3–6 μg/100 μl) was tested in fresh human serum (300 μl) and a 6 mM solution of diethylenetriaminepentaacetic acid (DTPA) pH = 7 (100 μl) at 37 °C at several time points (30, […]). After incubation, human serum samples were precipitated with acetonitrile or ethanol, centrifuged (2200×g, 3 min) and the supernatant analyzed. Degradation of the radiolabelled siderophore complexes was evaluated by RP-HPLC. Samples of the DTPA solutions were directly injected onto the HPLC.

[5] = Small animal PET/CT imaging in Balb/c mice; assay type: in vivo; conditions: r.o. injection, 5-10 MBq
Protocol: PET and computed tomography (CT) images were acquired with an Albira PET/SPECT/CT small animal imaging system (Bruker Biospin Corporation, Woodbridge, CT, USA). Female Balb/c mice were r.o. injected with radiolabelled siderophores in a dose of 5–10 MBq corresponding to 0.5–1 μg of siderophore per mouse. Animals were anaesthetized with isoflurane (FORANE, Abbott Laboratories, Abbott Park, IL, USA) (2 % flow rate) and positioned prone head first in the Albira system before the start of imaging. Static PET/CT imaging was carried out 5, 30 and 90 min p.i. for both Ga-68 and Zr-89 labelled siderophores. Animals injected with [^89Zr]siderophores were also imaged 4 h p.i. A 5-min PET scan (axial FOV 148 mm) was performed, followed by a CT scan (axial FOV 65 mm, 45 kVp, 400 μA, at 600 projections). Dynamic imaging was carried out immediately after the injection of radiolabelled siderophore for 90 min (5 min PET scan per frame). Scans were reconstructed with the Albira software (Bruker Biospin Corporation, Woodbridge, CT, USA) using the maximum likelihood expectation maximization (MLEM) and filtered backprojection (FBP) algorithms. After reconstruction, acquired data was viewed and analyzed with PMOD software (PMOD Technologies Ltd., Zurich, Switzerland). 3D images were obtained using VolView software (Kitware, Clifton Park, NY, USA). […]

[6] = Ex vivo biodistribution in Balb/c mice; conditions: r.o. injection, 30 and 90 min p.i.
Protocol: Biodistibution of radiolabelled siderophores was studied in female Balb/c mice (8 weeks old). Ga-68 and Zr-89 labelled siderophores (1–2 MBq/mouse, corresponding to 0.1–0.2 μg of siderophore per mouse) were injected retro-orbitally (r.o.). Animals were sacrificed by cervical dislocation 30 and 90 min post-injection (p.i.). Organs and tissues (blood, spleen, pancreas, stomach, intestine, kidneys, liver, heart, lung, muscle and femur) were removed and weighed. The amount of radioactivity in the samples was measured in an automatic gamma counter. Results were expressed as percentage of injected dose per gram organ (%ID/g).

[7] = Protein binding in fresh human serum (size-exclusion MicroSpin G-50); assay type: in vitro ADME; conditions: 37 °C

SMILES | Protein binding (%) (mean, n = 2) ([1]; incubation time 30 min) | Protein binding (%) (mean, n = 2) ([1]; incubation time 60 min) | Protein binding (%) (mean, n = 2) ([1]; incubation time 120 min) | Stability in human serum (%) (n = 1) ([2]; incubation time 30 min) | Stability in human serum (%) (n = 1) ([2]; incubation time 60 min) | Stability in human serum (%) (n = 1) ([2]; incubation time 120 min) | in vitro stability (in words) [2] | Log P (mean ± SD, n = 6) ([3]; Ga-68 labelled) | Stability in DTPA solution (%) (n = 1) ([4]; incubation time 30 min) | Stability in DTPA solution (%) (n = 1) ([4]; incubation time 60 min) | Stability in DTPA solution (%) (n = 1) ([4]; incubation time 120 min) | Stability in human serum (%) (n = 1) ([2]; Incubation time (min) 4) | Stability in human serum (%) (n = 1) ([2]; incubation time 24 h) | Log P (mean ± SD, n = 6) ([3]; Zr-89 labelled) | Protein binding (%) (mean, n = 2) [7]; 1 | Protein binding (%) (mean, n = 2) [7]; 24 | Stability in DTPA solution (%) (n = 1) ([4]; Incubation time (min) 1) | Stability in DTPA solution (%) (n = 1) ([4]; Incubation time (min) 4) | Stability in DTPA solution (%) (n = 1) ([4]; Incubation time (min) 24) | also measured
CC(=O)N([O-])CCCCCNC(=O)CCC(=O)N([O-])CCCCCNC(=O)CCC(=O)N([O-])CCCCCN.[68Ga+3] [[^68Ga]FOXB] | 7.67 | 10.29 | 10.83 | 74.1 | 72.0 | 75.4 | pronounced in vitro instability | −3.56 ± 0.17 | 60.1 | 54.5 | 52.9 | – | – | – | – | – | – | – | – | –
O=C1CCC(=O)N([O-])CCCCCNC(=O)CCC(=O)N([O-])CCCCCNC(=O)CCC(=O)N([O-])CCCCCN1.[68Ga+3] [[^68Ga]FOXE, [^68Ga]ferrioxamine E] | 0.27 | 0.24 | 0.53 | 99.9 | 99.9 | 99.9 | – | −1.65 ± 0.03 | 94.3 | 93.8 | 93.2 | – | – | – | – | – | – | – | – | kinetics and excretion route in PET imaging (in words) [5]: quickly eliminated mainly via the kidneys; ex vivo biodistribution (in words) [6]: slightly higher radioactivity values in gastrointestinal tract
CC(=O)NC1CCCN([O-])C(=O)C=C(C)CCOC(=O)C(NC(C)=O)CCCN([O-])C(=O)C=C(C)CCOC(=O)C(NC(C)=O)CCCN([O-])C(=O)C=C(C)CCOC1=O.[68Ga+3] (centres unmarked) [[^68Ga]TAFC, [^68Ga]triacetylfusarinine C] | 0.47 | 0.76 | 1.21 | 99.9 | 99.9 | 99.9 | – | −2.59 ± 0.15 | 85.0 | 84.7 | 81.8 | – | – | – | – | – | – | – | – | –
CC(=CC(=O)N([O-])CCCC1NC(=O)CNC(=O)C(CO)NC(=O)C(CO)NC(=O)C(CCCN([O-])C(=O)C=C(C)C(=O)O)NC(=O)C(CCCN([O-])C(=O)C=C(C)C(=O)O)NC1=O)C(=O)O.[89Zr+4] (centres unmarked) [[^89Zr]FCHA] | – | – | – | – | – | – | less stable as compared to its Ga-68 labelled counterpart | – | – | – | – | 85.42 | 77.38 | −3.28 ± 0.37 | 2.70 | 31.05 | 68.70 | 65.27 | 54.22 | protein binding [1]: 31.1%
CC(=O)N([O-])CCCCCNC(=O)CCC(=O)N([O-])CCCCCNC(=O)CCC(=O)N([O-])CCCCCN.[89Zr+4] [[^89Zr]FOXB] | – | – | – | – | – | – | higher stability in all examined media | – | – | – | – | 99.70 | 99.53 | −3.01 ± 0.07 | 1.63 | 1.84 | 91.56 | 90.39 | 87.10 | –
O=C1CCC(=O)N([O-])CCCCCNC(=O)CCC(=O)N([O-])CCCCCNC(=O)CCC(=O)N([O-])CCCCCN1.[89Zr+4] [[^89Zr]FOXE, [^89Zr]ferrioxamine E] | – | – | – | – | – | – | – | – | – | – | – | 99.70 | 98.34 | −1.91 ± 0.04 | 3.27 | 16.59 | 99.70 | 99.50 | 99.70 | protein binding [1]: 16.6%; kinetics and excretion route in PET imaging (in words) [5]: much slower kinetics and significant hepatobiliary elimination; ex vivo biodistribution (in words) [6]: significantly higher radioactivity accumulation in the intestines and liver
CC(=O)NC1CCCN([O-])C(=O)C=C(C)CCOC(=O)C(NC(C)=O)CCCN([O-])C(=O)C=C(C)CCOC(=O)C(NC(C)=O)CCCN([O-])C(=O)C=C(C)CCOC1=O.[89Zr+4] (centres unmarked) [[^89Zr]TAFC, [^89Zr]triacetylfusarinine C] | – | – | – | – | – | – | – | – | – | – | – | 98.72 | 98.50 | −1.95 ± 0.03 | 0.99 | 1.37 | 99.51 | 99.50 | 99.50 | –

From article PMC4870302, “In Vitro and In Vivo Comparison of Selected Ga-68 and Zr-89 Labelled Siderophores” (Molecular Imaging and Biology, 2015)
